{"source": "paper PMC3667888", "about": "(Channels, 2013)", "origin": "cited, not measured here", "tested_on": "Kv1 channels", "details": "applied externally; cited from earlier work", "data": [{"smiles": "CCCCC/C=C\\C/C=C\\C/C=C\\C/C=C\\CCCC(=O)NCCO", "note": "[AEA, anandamide]", "values": [{"measurement": "inhibition of Kv1 channels by anandamide", "result": "not inhibited"}]}]}
